Source: patent US6716851B2, “Substituted 2-aryl-4-arylaminopyrimidines and analogs as activators or caspases and inducers of apoptosis and the use thereof” (Cytovia, Inc., priority 2000, dated 2004)
pEC50: −log10 of the molar value. Read-outs that look alike come from different tables or passages of the source.

Columns and labels:
[1] = system: MES-SA (sarcoma cell line); experiment: Cell proliferation assay (GI50) in MES-SA cells; format: cell-based; conditions: Homo sapiens, 48 h
Experimental: [Worded in the source for another cell line; this cell line is reported under the same test.] (§1) T-47D cells were grown and harvested as in Example 221. An aliquot of 90 μl of cells (2.2×10^4 cells/ml) was added to a well of a 96-well microtiter plate containing 10 μl of a 10% DMSO in RPMI-1640 media solution containing 1 nM to 100 μM of 4-(3-methoxyanilino)-2-(2-pyridinyl)-6-(trifluoromethyl)pyrimidine (0.1 nM to 10 μM final). An aliquot of 90 μl of cells was added to a well of a 96-well microtiter plate containing 10 μl of a 10% DMSO in RPMI-1640 media solution without compound as the control sample for maximal cell proliferation (AMax). The samples were mixed by agitation and then incubated at 37° C. for 48 h in a 5% CO2-95% humidity incubator. After incubation, the samples were removed from the incubator and 20 μl of CellTiter 96 AQueous One Solution Cell Proliferation^TM reagent (Promega) was added. The samples were mixed by agitation and incubated at 37° C. for 2-4 h in a 5% CO2-95% humidity incubator. Using an absorbance plate reader (Model 1420 Wallac Instruments), an initial reading (T=0) was made approximately 1-2 min after addition of the solution, employing absorbance at 490 nm. This determines the possible background absorbance of the test compounds. No absorbance for 4-(3-methoxyanilino)-2-(2-pyridinyl)-6-(trifluoromethyl)pyrimidine was found at 490 nm. After the 2-4 h incubation, the samples were read for absorbance as above (ATest). […]

[2] = system: Panc-1 (pancreatic cancer cell line); experiment: Cell proliferation assay (GI50) in Panc-1 cells; format: cell-based; conditions: Homo sapiens, PANC-1, 48 h
Experimental: [Worded in the source for another cell line; this cell line is reported under the same test.] as §1

[3] = system: T-47D cells; experiment: Caspase cascade activation (N-(Ac-DEVD)-N'-ethoxycarbonyl-R110 fluorogenic substrate) in T-47D cells; format: cell-based, Human; conditions: 48 h incubation
Procedure, shortened: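 EC50 comes from sigmoidal fitting of the net RFU ratio over DMSO control, read at ex 485/em 530 nm 3 h after adding 14 μM Ac-DEVD-R110 in lysolecithin/DTT/PIPES pH 7.2 buffer. Compound (0.016-10 μM final) was applied to cells for 48 h at 37 °C beforehand.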

[4] = system: T-47D cells; experiment: Cell proliferation assay (GI50) in T-47D cells; format: cell-based; conditions: Homo sapiens, T47D, 48 h
Experimental: as §1

[5] = system: P388 (mouse leukemia cell line); experiment: Cell proliferation assay (GI50) in P388 cells; format: cell-based; conditions: P388, 48 h
Experimental: [Worded in the source for another organism; used here, by the source, with some conditions changed.] as §1

[6] = system: PC-3 (prostate cancer cell line); experiment: Cell proliferation assay (GI50) in PC-3 cells; format: cell-based; conditions: Homo sapiens, PC-3, 48 h
Experimental: [Worded in the source for another cell line; this cell line is reported under the same test.] as §1

Compound: COc1cccc(Nc2cc(C(F)(F)F)nc(-c3ccccn3)n2)c1 [Compound A, 4-(3-methoxyanilino)-2-(2-pyridinyl)-6-(trifluoromethyl)pyrimidine]
- GI50 [1]: > 10000 nM
- GI50 [2]: > 10000 nM
- pEC50 ([3]; Homo sapiens, T47D, caspase activation potency, read-out: T47 EC50): 6.36
- T47 Ratio 48 hr ([3]; caspase activity: ratio of net RFU of test compound to control): 29.3
- GI50 ([4]; T-47D, Table II, read-out: GI50): 30 nM
- GI50 ([4]; Table III, read-out: GI50(nM) T47D): 30 nM
- GI50 [5]: > 10000 nM
- GI50 [6]: > 10000 nM
